{"source": "patent US20080051438A1", "about": "“Preventive/Therapeutic Compositions Useful for Treating Cardiovascular Diseases” (priority 2006, published 2008)", "test_system": "hypertensive patients", "test": "Special investigation of combined use of cilnidipine and ARB: changes in heart rate", "format": "in vivo, human", "conditions": "for heart rate after starting the combined administration / heart rate after starting the combined use: 12 weeks and later up to last measurement; for heart rate, aft. / heart rate, bef.: all availability cases; for heart rate, bef. use / heart rate, aft. use: only ARB", "protocol": "A special investigation was conducted in various medical centers, compiled, and analyzed to evaluate the safety and availability of the combined use of cilnidipine and at least one angiotensin II receptor blocker.\nThe subjects of the investigation were hypertensive patients which were adapted to cilnidipine. Combined administration of cilnidipine and ARB was started for the treatment of hypertension in these patients.\nA prospective continuous investigation method was conducted. Such a method is continuously conducted with the registered cases with the combined administration of cilnidipine (Atelec®) and ARB, until the number of cases reaches the contracted cases for each center.\nRegarding the administration method of cilnidipine, 5 to 10 mg of cilnidipine was orally administered after breakfast once a day. Meanwhile, the amount may increase or decrease depending on patient's age, symptoms, or the like. When the effect is insufficient, the amount can be increased to 20 mg once a day. The dosing period of cilnidipine was set to 12 weeks in principle.\nThe following items were tracked during the investigation: patient's background (sex), existence or nonexistence of previous therapeutic agents and the content thereof, targeted blood pressure (systolic BP/diastolic BP), the conditions of administration of cilnidipine and ARB, antihypertensives used in combination (those other than cilnidipine or ARB), clinical course (systolic BP/diastolic BP/heart rate), and occurrence of side-effects. As for the availability of the combined administration, in the 12th week after starting the combined administration, the doctor in attendance judged the degree of the blood pressure controls on a three-point scale of “well-controlled”, “nearly well-controlled” and “poorly-controlled”, referring to the changes in the systolic and diastolic BP. As for the safety and availability analysis for each patient background, Fisher's exact probability test or the X^2 test was used. As for the blood pressure and heart rate, the average value and the standard deviation were calculated for the subjects before the combined administration (within 4 weeks before starting the combined administration), and data after starting the combined administration were determined on each observation day, and analysis was conducted by using a paired t-test. The test was conducted as the two-sided test and less than 5% of the risk rate was regarded as significant. Furthermore, side-effects were compiled based on the naming of preferred terms (PT) of MedDRA/J ver 8.0.\nTable 7 and FIG. 2 show the number of cases for which the blood pressure was measured, and the changes in the measured values of systolic BP, diastolic BP, and heart rate were measured at the following time points: before starting the combined administration, 4 weeks, 8 weeks, and 12 weeks after starting the combined administration, and the last measurement, which was 222.43 days in average from the start of the combined administration, n=2919). […] Then, it continued to slowly decrease, and the a stable change was seen up to 12 weeks after the start.", "key": {"[1]": {"conditions": "all availability cases with heart rate 75 or higher and less than 85 beats/min. before combined use"}, "[2]": {"conditions": "all availability cases with heart rate 85 beats/min. or higher before combined use"}, "[3]": {"conditions": "only ARB then cilnidipine added, cases with heart rate 75 or higher and less than 85 beats/min. before combined use"}, "[4]": {"conditions": "only ARB then cilnidipine added, cases with heart rate 85 beats/min. or higher before combined use"}}, "note": "Marks after values point to notes of the source that are not given here.", "data": [{"smiles": "COCCOC(=O)C1=C(C)NC(C)=C(C(=O)OC/C=C/c2ccccc2)C1c1cccc([N+](=O)[O-])c1", "note": "(racemic) [cilnidipine, 2-methoxyethyl-3-phenyl-2(E)-propenyl(±)-1,4-dihydro-2,6-dimethyl-4-(3-nitrophenyl)-3,5-pyridinedicarboxylate]", "values": [{"measurement": "heart rate before starting the combined use", "setting": "[1]", "value": "79.19±2.73", "unit": "beats/min."}, {"measurement": "heart rate after starting the combined administration", "setting": "[1]", "value": "76.28±8.93", "unit": "beats/min."}, {"measurement": "heart rate before starting the combined use", "setting": "[2]", "value": "93.48±7.28", "unit": "beats/min."}, {"measurement": "heart rate after starting the combined administration", "setting": "[2]", "value": "84.57±11.17", "unit": "beats/min."}, {"measurement": "heart rate, aft.", "setting": "cilnidipine + ARB, 4 wks after use", "value": "73.80 ± 10.80", "unit": "beat/min."}, {"measurement": "heart rate, aft.", "setting": "cilnidipine + ARB, 8 wks after use", "value": "72.87 ± 10.53", "unit": "beat/min."}, {"measurement": "heart rate, aft.", "setting": "cilnidipine + ARB, 12 wks after use", "value": "73.61 ± 10.57", "unit": "beat/min."}, {"measurement": "heart rate, bef.", "setting": "cilnidipine + ARB, before combined use, 1,815 cases", "value": "75.40 ± 11.47", "unit": "beat/min."}, {"measurement": "heart rate, aft.", "setting": "cilnidipine + ARB, last measurement (222.43 days in average)", "value": "73.18 ± 10.37", "unit": "beat/min."}, {"measurement": "heart rate, bef.", "setting": "value before combined use of the 557 cases measured at 8 wks", "value": "73.83 ± 10.49", "unit": "beat/min."}, {"measurement": "heart rate, bef.", "setting": "value before combined use of the 664 cases measured at 12 wks", "value": "75.33 ± 10.98", "unit": "beat/min."}, {"measurement": "heart rate, bef.", "setting": "value before combined use of the 765 cases measured at 4 wks", "value": "75.06 ± 11.46", "unit": "beat/min."}, {"measurement": "heart rate, bef.", "setting": "value before combined use of the 1,615 cases with last measurement", "value": "75.18 ± 11.30", "unit": "beat/min."}, {"measurement": "heart rate before starting the combined use", "setting": "[3]", "value": "79.24±2.71", "unit": "beats/min."}, {"measurement": "heart rate after starting the combined use", "setting": "[3]", "value": "76.87±8.37", "unit": "beats/min."}, {"measurement": "heart rate before starting the combined use", "setting": "[4]", "value": "93.64±6.90", "unit": "beats/min."}, {"measurement": "heart rate after starting the combined use", "setting": "[4]", "value": "84.30±10.58", "unit": "beats/min."}, {"measurement": "heart rate, bef. use", "setting": "then cilnidipine added, value before combined use of the 229 cases measured at 8 wks", "value": "72.97 ± 10.16", "unit": "beat/min."}, {"measurement": "heart rate, bef. use", "setting": "then cilnidipine added, value before combined use of the 249 cases measured at 12 wks", "value": "73.98 ± 10.44", "unit": "beat/min."}, {"measurement": "heart rate, bef. use", "setting": "then cilnidipine added, value before combined use of the 308 cases measured at 4 wks", "value": "73.40 ± 10.54", "unit": "beat/min."}, {"measurement": "heart rate, bef. use", "setting": "then cilnidipine added, value before combined use of the 648 cases with last measurement", "value": "74.26 ± 10.58", "unit": "beat/min."}, {"measurement": "heart rate, aft. use", "setting": "then cilnidipine singularly added, 4 wks after the use", "value": "72.49 ± 10.25^a beat/min."}, {"measurement": "heart rate, aft. use", "setting": "then cilnidipine singularly added, 8 wks after the use", "value": "72.62 ± 10.60", "unit": "beat/min."}, {"measurement": "heart rate, aft. use", "setting": "then cilnidipine singularly added, 12 wks after the use", "value": "72.54 ± 10.28^a beat/min."}, {"measurement": "heart rate, bef. use", "setting": "then cilnidipine singularly added, before combined use, 738 cases", "value": "74.46 ± 10.76", "unit": "beat/min."}, {"measurement": "heart rate, aft. use", "setting": "then cilnidipine singularly added, last measurement (222.03±143.88 days)", "value": "73.24 ± 10.51^a beat/min."}]}]}
